Test results as given in patent US11058725B2, “CA2 compositions and methods for tunable regulation” (Obsidian Therapeutics, Inc., priority 2019, dated 2021).
pEC50: −log10 of the molar value. Like-named read-outs stand apart in the source and are kept apart here.

Experiments:
[1] = test system: TIL-matched patient-derived xenografts (hPDX); assay: Human PDX (hPDX) model with engineered matched TIL; assay type: in vivo, NSG mice
Description: To evaluate the effect of regulated mbIL15 on the anti-tumor activity of tumor infiltrating lymphocytes (TIL), a human PDX (hPDX) model is used. […] TIL are transduced with BaEV-pseudotyped lentiviral vectors containing either the IL15-292 construct or the IL15-293 construct, as described in Example 6, or with BaEV-pseudotyped lentiviral empty vector (EV), and then optionally frozen. TIL-matched patient-derived xenografts (hPDX) from the tumor sample are established via subcutaneous implant into the right flank of NSG mice. Tumor growth is measured once or twice per week using calipers. On study start, tumors are measured, and mice are randomized and placed in cohorts based on similar mean tumor volume across all groups into new cages (N=8 for each group). […]
Group 1 receives untransduced TIL supplemented with recombinant human IL2 (hIL2) as benchmark control, and group 2 receives TIL transduced with constitutive mbIL15 (IL15-292). […] Blood (50 μL) was withdrawn from submandibular veins on pre-determined days. Red blood cells are lysed, stained with fluorochrome-conjugated antibodies against human CD45, CD3 and mouse CD45, and cells are analyzed by flow cytometry. Tumor growth is measured for up to approximately 90 days; endpoints include maximal caliper measurements as well as effects on animal health, such as tumor necrosis and decrease in body weight.

HL-60-luc = assay: HL-60 animal model of acute myeloid leukemia with engineered NK cells; assay type: in vivo, NSG mice
Description: To evaluate the effect of regulated mbIL15 on the anti-tumor activity of NK cells, an HL-60 animal model of acute myeloid leukemia is used. Cord blood NK cells are transduced with BaEV-pseudotyped lentiviral vectors containing either the IL15-292 construct or the IL15-293 construct, as described in Example 9, or with BaEV-pseudotyped lentiviral empty vector (EV), and optionally frozen after transduction. HL-60 cells expressing luciferase (HL-60-luc) are injected intravenously (1×10^6/mouse) into NSG mice and tumor growth is measured once or twice per week by bioluminescence imaging measurement (total flux units in photons per second (p/s) after intraperitoneal injections of D-luciferin). On day 6, animals are randomized into new cages (N=8 for each group) when average tumor size reaches approximately 10^6 total p/s. […]
Group 1 receives NK cells engineered with EV as a negative control, and group 2 receives NK cells transduced with constitutive mbIL5 (construct IL15-292). […] Red blood cells are lysed, stained with fluorochrome-conjugated antibodies against human CD45, CD3 and mouse CD45, and cells are analyzed by flow cytometry. Tumor growth is measured up to approximately 30 days; endpoints include maximal total flux units (10^10) as well as effects on animal health such as hind-limb paralysis and decrease in body weight.

TIL = assay: Expression of regulated mbIL15 in TIL in response to ACZ (anti-IL15 and IL15Ra-Fc co-staining); assay type: cell-based, human
Description: HEK293T cells were seeded on collagen coated tissue culture plates until 70% confluent. Cells were transfected with pELNS transfer vector carrying constitutive (IL15-292) or regulated (IL15-293) IL15 constructs, as well as packaging plasmids (pRSV.REV, pMDLg/pRRE and OT-BaEVg-002 (SEQ ID NO: 51)) using Lipofectamine 3000 transfection reagent in Opti-MEM media. Media was replaced 6-8 hrs post-transfection with serum-free media. Supernatants containing virus were harvested 24 hr post-transfection, fresh media was added, and supernatants were harvested again at 48 hr post-transfection. Viral supernatants were filtered to remove debris and concentrated by low speed ultracentrifugation. Virus were resuspended, aliquoted and stored at −80 C freezer.
96-well non-coated tissue culture plates were incubated with 35 μg per mL RetroNectin (Takara Bio) in PBS for 2 h at 37° C. or overnight at 4° C. RetroNectin was removed and the plates washed with PBS. BaEV-pseudotyped lentivirus, prepared as described above, and TIL cell media, at a total volume of 50 μL per well, were added to each well and the plates were centrifuged at low speed for 2 hours at 32° C. TIL generated from a head and neck tumor sample prepared as described in Example 5 were engineered after 3 weeks in the pre-REP culture. TIL were activated for 24 hrs in 24-well plates with anti-CD3/CD28 beads at 3:1 bead to T cell ratio. Activated TIL were placed in virus-coated plates and centrifuged at 800 g for 2 hrs and incubated at 37° C. for 4 days in culture media. One well of cells was processed similarly without virus addition and used as negative control (“untransduced”). Cells that were transduced with the regulated mbIL15 construct were treated either with 10 μM ACZ or DMSO for 24 hrs.
mbIL15 expression was determined by flow cytometry using two staining reagents: fluorochrome-conjugated anti-IL15 antibody as well as a recombinant protein comprised of extracellular domain of IL15Ra fused to human IgG1 Fc domain (IL15Ra-Fc). mbIL15+ cell frequency was determined based on co-staining with anti-IL15 and IL15Ra-Fc (identified as the IL15+IL15Ra-Fc+ double positive population).

Human primary T cells = assay: In vitro antigen-independent expansion of T cells transduced with constitutive or ACZ-regulated mbIL15 constructs (cell numbers by flow cytometry); assay type: cell-based
Description: T cells were thawed, cells were washed and counted. T cells were mixed with CD3/CD28 beads (Invitrogen cat#11141D) at 3:1 bead to T cell ratio. 5×10^5 cells/well were added to 24-well plates in 500 μL media. Cells were activated for 24 hrs. Next day, lentivirus was thawed and added to each well at different volumes. After 24 hrs, 500 μL of fresh media was added to wells, and cells were expanded by adding equal volume of fresh media every 2-3 days to keep cell density at 0.5-1×10^6/mL. Cells were analyzed by flow cytometry to confirm expression on day 5 or 6. Cells were expanded for 9-10 days.
After T cell transduction and expansion, CD3/CD28 beads were removed using magnets, cells were washed twice, resuspended in fresh media and counted. Cells were plated in 12-well plates at 1×10^6 in 2 mL. One well of untransduced cells was cultured in the presence of 2 ng/mL IL15 as a control. T cells expressing regulated constructs were cultured in the absence or presence of acetazolamide (ACZ, 30, 10, 3, 1, 0.3 μM). Cell numbers were monitored by flow cytometry every 3-4 days and cells were cultured for 10-12 days. At each time point 100 μL of cells were collected from wells and analyzed by flow cytometry. Cells were split as needed. Cell cultures were maintained in 12-well plates by taking a portion and adding media in a new plate. Volumes for each well were recorded before and after split to calculate final volume in cell number assessment. IL15 or ACZ were replenished at final concentration of the fresh media added during each split.
T cell numbers were determined by flow cytometry. Empty vector (EV) transduced cell numbers decreased to background levels between 3-5 days in the absence of IL15, and cells expanded 11-fold in the presence of 2 ng/mL exogenous IL15 (FIG. 3A). T cells expressing constitutive IL15-292 and IL15-294 expanded between 18 and 21-fold, respectively, in 10 days (FIG. 3A). In T cells expressing IL15-293, maximum expansion was 9.5-11× with 30, 10, 3 μM (FIG. 3B). At the lowest concentration tested (0.3 μM), cells expanded 3.3×. These cells survived longer (0.8×) compared to EV cells without drug treatment […]. In T cells expressing IL15-295, maximum expansion was 8.2-10× with 30, 10, 3 μM and cells expanded 4.9× at the lowest concentration (0.3 μM) tested (FIG. 3C). Without drug treatment, these cells survived (0.9×) longer compared to EV.

[2] = test system: cord blood-derived NK cells; assay: Regulation of mbIL15 construct with ACZ in cord blood-derived NK cells (IL15Ra-Fc and anti-CD56 FACS); assay type: cell-based, human; conditions: DMSO overnight, regardless of donor
Description: One day prior to NK cell isolation as described in Example 8, feeder cells (K562 cells expressing 4-1BBL and mblL-21) were thawed in complete NK cell media (RPMI with Glutamax (ThermoFisher), 10% heat-inactivated fetal bovine serum (Gibco), 1× Penicillin/Streptomycin, 1 mM Sodium Pyruvate, 1×HEPES, 50 μM 2-Mercaptoethanol). On the day of NK cell isolation, 10×10^6 feeder cells were treated with mitomycin C to inhibit their proliferation and washed to remove excess drug. NK cells were added to the feeder cells at a 1:2 effector to target ratio in NK cell media with 200 U/mL recombinant human IL2 (rhIL2; PeproTech). NK cell cultures were expanded by replenishing cell cultures with NK cell media and rhIL2 every two days, and analyzed by FACS for NK cell expansion.
96-well non-coated tissue culture plates were incubated with 35 μg per mL RetroNectin (Takara Bio) in PBS for 2 h at 37° C. or overnight at 4° C. RetroNectin was removed and the plates washed with PBS. […]
NK cells from three different donors were isolated, expanded and transduced with BaEV-pseudotyped lentivirus containing either the IL15-292 construct or the IL15-293 construct. The titer of the IL15-292 lentivirus was 2.38×10^8 TU/mL while the titer for the IL15-293 lentivirus was 6.51×10^8 TU/mL (as measured by a Jurkat qPCR titer), and 4 μL lentivirus and 46 μL NK cell media were added to each well. […]

T cells [3] = assay: Acetazolamide dose response of IL15 expression on transduced T cells (flow cytometry); assay type: cell-based, human; conditions: ACZ 24 hrs starting at 100 μM, diluted 3-fold for 9 points
Description: Cells were treated with different concentrations of ACZ (ligand) starting at 100 μM for 24 hrs. Graphs show % IL15+ T Cells (FIG. 4A) and mean fluorescence intensity (MFI) of IL15 (FIG. 4B).
The effect of different concentrations of ACZ on IL15 expression was tested. T cells were treated with ACZ for 24 hrs starting at 100 μM, diluted 3-fold for 9 points. Both % IL15+ T Cells (FIG. 4A) and IL15 Mean Fluorescence Intensity (MFI) (FIG. 4B) analysis indicated similar dose curves for OT-IL15-293 and OT-IL15-295. There was 4-5-fold increase in expression (both % IL15+ T cells and IL15 MFI) between highest and lowest concentrations of ACZ.

T cells [4] = assay: IL15 expression on T cells in vivo on day 25 (IL15Ra-Fc staining, flow cytometry); set-up: species or system NSG mice; conditions: day 25, treated with ACZ 200 mg/kg daily PO
Description: Human primary T cells capable of expressing constitutive mbIL15 or ACZ-regulated mbIL15 were prepared in accordance with methods described in Example 1 above. After T cell transduction and expansion, CD3/CD28 beads were removed using magnets, cells were washed twice, resuspended in fresh media and counted. T cells were mixed with expanded NK cells and each animal received 5×10^6 T cells and 2×10^6 expanded NK cells. Cells were infused by intravenous injections into NSG mice. Animals infused with T cells expressing regulated constructs were dosed daily with 200 mg/kg ACZ or vehicle by PO injections. Every 3-4 days, 50 μL blood was analyzed by flow cytometry for presence of T cells and NK cells using antibodies against mouse and human CD45, CD3 and CD56. IL15 expression on day 25 was analyzed using IL15Ra-Fc and fluorochrome conjugated anti-human IgG antibody.
IL15 expression on T cells in vivo on day 25 was analyzed by flow cytometry (FIG. 5C). T cells transduced with constitutive constructs IL15-292 and IL15-294 expressed high levels of IL15 (82% and 61%). IL15 expression was <1.5% in vehicle-treated IL15-293 and IL15-295 as well as EV groups. IL15 expression levels were 11% and 9% on T cells transduced with IL15-293 and IL15-295 in groups treated with ACZ.

| pEC50 (T cells [3]; read-out: EC50 of ACZ based on % IL15+ T Cells) | pEC50 (T cells [3]; read-out: EC50 of ACZ based on MFI of IL15) | Substance | tumor growth ([1]; group 3, TIL transduced with regulated mbIL15, 200 mg/kg ACZ daily PO) | tumor growth ([1]; group 4, TIL transduced with regulated mbIL15, vehicle daily) | tumor growth (HL-60-luc; group 3, NK cells transduced with regulated mbIL15, 200 mg/kg ACZ daily PO) | NK cell expansion and persistence compared to groups 1 and 4 (HL-60-luc; group 3, regulated mbIL15, 200 mg/kg ACZ daily PO) | MFI of regulated mbIL15 in TIL (TIL; 10 μM ACZ 24 hrs) | regulated mbIL15 expression in TIL (TIL; 10 μM ACZ 24 hrs) | MFI of regulated mbIL15 in TIL (TIL; DMSO 24 hrs) | regulated mbIL15 expression in TIL (TIL; DMSO 24 hrs) | T cell expansion at the lowest concentration tested (Human primary T cells; ACZ 0.3 μM) | maximum T cell expansion (Human primary T cells; ACZ 30, 10, 3 μM) | T cell survival/expansion without drug treatment (Human primary T cells; no ACZ) | regulated mbIL15 expression in NK cells [2] | IL15 expression on T cells (T cells [4]) | T cell expansion (Human primary T cells; Empty vector (EV) transduced cells, 2 ng/mL exogenous IL15) |
| --- | --- | --- | --- | --- | --- | --- | --- | --- | --- | --- | --- | --- | --- | --- | --- | --- |
| 6.54 | 6.19 | IL15-293: ACZ-regulated mbIL15 construct, mbIL15 linked to CA2 (M1del, L156H) DRD (AA SEQ ID NO: 24) | substantially regress | No tumor growth inhibition | regress substantially | higher expansion and persistence | high | 42.5% | low | 17.1% | 3.3 × | 9.5-11 × | 0.8 × | ≤ 10% | 11% |  |
|  |  | exogenous IL15: exogenous IL15 (2 ng/mL) added to control T cell cultures [reference compound] |  |  |  |  |  |  |  |  |  |  |  |  |  | 11 fold |
